Two compounds from US20150290192A1, “INHIBITORS OF BRUTON'S TYROSINE KINASE” (HOFFMANN-LA ROCHE INC., priority 2012, published 2015) can be followed below.

Structures are written as SMILES. Read-outs that look alike come from different tables or passages of the source. Marks after values point to notes of the source that are not given here.

One series in a line: Pharmacokinetics in dog. The following applies: for CL / clearance: 1.0 mg/kg (iv); for Oral Bioavailability / bioavailability: 1.0 (iv), 1.0 (po) mg/kg; for clearance / bioavailability: plasma; for bioavailability: 1 mg/kg. It counts as in vivo.
The nature of another series: Pharmacokinetics in rat. The conditions noted are these: for CL / clearance: 0.5 mg/kg (iv); for Oral Bioavailability / bioavailability: 0.5 (iv), 2 (po) mg/kg; for clearance / bioavailability: plasma; for bioavailability: 2 mg/kg. It counts as in vivo.
Series [1] has as its system OVA sensitized and challenged mice, allergen-induced bronchoconstriction. The series is described as follows: Ovalbumin-induced allergic airway disease: allergen-induced bronchoconstriction. The conditions noted are these: Intranasal.
The target in the next series is Bruton's Tyrosine Kinase (Homo sapiens, UniProt Q06187). As to the kind of experiment: Bruton's Tyrosine Kinase (BTK) inhibition TR-FRET competition assay. The conditions noted are these: for IC50: inactivated state of BTK, 18-24 h at 14° C. It counts as binding. How it is done: This BTK competition assay measures compound potency (IC50) for the inactivated state of Bruton's Tyrosine Kinase using FRET (Firster/Fluorescence Resonance Energy Transfer) technology. The BTK-Eu complex was incubated on ice one hour prior to use at a starting concentration of 50 nM BTK-Bioease™: 10 nM Eu-streptavidin (Perkin-Elmer Catalog#AD0062). The assay buffer consisted of 20 mM HEPES (pH 7.15), 0.1 mM DTT, 10 mM MgCl2, 0.5 mg/ml BSA with 3% Kinase Stabilizer (Fremont Biosolutions, Catalog #STB-K02). After 1 h, the reaction mixture from above was diluted 10 fold in assay buffer to make 5 nM BTK: InM Eu-Streptavidin complex (donor fluorophore). 18 l of a mixture of 0.11 nM BTK-Eu and 0.11 nM Kinase Tracer 178 (Invitrogen, Catalog #PV5593,) with BTK-Eu alone as no negative control, was then dispensed into 384-well flat bottom plates (Greiner, 784076). Compounds to be tested in assay were prepared as 10× concentrations and serial dilution in half-log increments was performed in DMSO so as to generate 10 point curves. To initiate the FRET reaction, compounds prepared as 10× stock in DMSO was added to the plates and the plates were incubated 18-24 h at 14° C.
After the incubation the plates were read on a BMG Pherastar Fluorescent plate reader (or equivalent) and used to measure the emission energy from the europium donor fluorophore (620 nm emission) and the FRET (665 nm emission). The negative control well values were averaged to obtain the mean minimum. The positive “no inhibitor” control wells were averaged to obtain the mean maximum. Percent of maximal FRET was calculated using following equation:
% max FRET=100×[(FSRcmpd−FSRmean min)/(FSRmean max−FSRmean min)]
where FSR=FRET Signal ratio. % Max FRET curves were plotted in Activity Base (Excel) and the IC50(%), hill slope, z′ and % CV were determined. The mean IC50 and standard deviation will be derived from duplicate curves (singlet inhibition curves from two independent dilutions) using Microsoft Excel.

Series [2] deals with human B cells (BCR activation). The series is described as follows: Human B cell antibody production after BCR activation. It counts as cell-based. The following applies: Homo sapiens, B-cell, 240 h, 10 days culture, N = 3 donors. On the procedure:
Human total B cells were enriched with RosetteSep human B cell enrichment cocktail (#28921, Vancouver, BC) from buffy coat leukocyte packs (New York Blood Center) following manufacturer's protocol. Enriched B cell purity (around 80%) was checked by FACS with CD19+ staining. B cells were suspended (0.1 million cells/well/100 μl) in RPMI-1640 based conditional medium (50 ng/ml IL-2, 50 ng/ml IL-10, and […] anti-IgD for the activation of B cells to produce IgG/IgM; 10 ng/ml IL-4, 10 ng/ml IL-10, 25 ng/ml IL-21, and […] anti-CD40 for the activation of B cells to produce IgE) together with Compound 1 (1 nM-10 μM). Cells were cultured for 10 days (for IgG/IgM production) or 14 days (for IgE production) at 37° C. Culture supernatants were collected for IgM, IgG, and IgE analysis following Bethyl Laboratory's protocol (#E80-104, #E80-100, #E80-108, Montgomery, Tex.).

The subject of series [3] is human mast cells (FCεRI activation). The series is described as follows: Human mast cell activation, mediator release after FCεRI activation. The following applies: N = 3 donors. It counts as cell-based. How it is done:
One million human cord blood derived CD34+ hematopoietic stem cells (HSCs) from different donors (AllCells #CB008F-S, Emeryville, Calif.) were cultured for eight weeks in a serum-free complete medium (StemPro-34 with supplements; Invitrogen, Carlsbad, Calif.), with recombinant h-SCF (100 ng/ml) and h-IL6 (50 ng/ml). During the first week of culturing, recombinant h-IL3 (10 ng/ml) was also included to support HSCs differentiation. After 8 weeks of culture, cells were stimulated with recombinant h-IL-4 (10 ng/ml) for 5 days. Confirmation of the mast cell differentiation process was routinely done by FACS to check for c-kit and FcsRI expression; differentiated cells were routinely more than 90% c-kit positive, FceRI positive. Differentiated mast cells were sensitized with […] anti-NP IgE (Serotec, Raleigh, N.C.) overnight at 37° C. Cells were washed and then treated with Compound 1 for 1 hour at 37° C. After treatment, cells were cross-linked with […] NP(30)-BSA (Biosearch Technologies, Novato Calif.) for 30 minutes (for histamine and lipid mediator assessment) or overnight (for cytokine assessment). Culture supernatants were collected and assayed for histamine (Oxford Biomedical Research, Rochester Hills, Mich.), PGD2 and LTC4 (Cayman Chemical Company, Ann Arbor Mich.), and IL-5 and IL-13 (Bio-Rad Bio-Plex Pro cytokine quantification kit) release as per kits' instructions. Compound 1, Compound 2 and Compound 3 reduced the release of these mediators into the supernatant in a concentration dependent manner up to 100% efficacy and the IC50 values are reported in Table 2.

Another series concerns the target Btk kinase (Homo sapiens, UniProt Q06187). The series is described as follows: Btk Biacore binding assay. The following applies: for off rate: Biacore; for kon: read-out: Biacore Ka. Background: In SPR one partner is held on a chip, and binding of the other changes the refractive index at the surface.
[4] abbreviates: delivered dose 0.3 mg/kg, deposited dose 0.3 mg/kg.
Where [5] appears, read: delivered dose 1.0 mg/kg, deposited dose 1.0 mg/kg.
[6] abbreviates: delivered dose 3.0 mg/kg, deposited dose 3.0 mg/kg.
The mark [7] stands for this setting: read-out: IC50 Histamine release.

Sequence of Btk kinase (Q06187 whole entry): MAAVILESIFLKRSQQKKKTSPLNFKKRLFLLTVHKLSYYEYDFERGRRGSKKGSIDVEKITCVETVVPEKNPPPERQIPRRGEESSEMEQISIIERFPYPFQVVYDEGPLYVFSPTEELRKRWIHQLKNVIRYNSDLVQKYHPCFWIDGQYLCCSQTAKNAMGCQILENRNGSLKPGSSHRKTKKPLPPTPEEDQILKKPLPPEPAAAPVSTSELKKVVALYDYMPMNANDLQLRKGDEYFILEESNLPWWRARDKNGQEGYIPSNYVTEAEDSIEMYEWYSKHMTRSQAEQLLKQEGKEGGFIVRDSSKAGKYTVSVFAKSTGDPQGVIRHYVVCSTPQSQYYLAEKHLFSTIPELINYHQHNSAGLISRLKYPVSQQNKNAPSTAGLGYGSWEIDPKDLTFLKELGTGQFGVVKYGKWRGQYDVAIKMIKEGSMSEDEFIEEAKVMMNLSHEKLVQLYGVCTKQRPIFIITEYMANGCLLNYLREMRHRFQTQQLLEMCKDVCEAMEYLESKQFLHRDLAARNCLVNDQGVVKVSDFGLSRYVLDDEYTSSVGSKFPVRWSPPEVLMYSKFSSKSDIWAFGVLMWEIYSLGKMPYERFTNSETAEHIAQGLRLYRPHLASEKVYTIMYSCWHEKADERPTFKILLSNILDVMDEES
Sequence of Bruton's Tyrosine Kinase (Q06187 whole entry): as above
Method for Btk kinase: Analyses were performed on a Biacore T-100. Btk kinase was avi-tagged and co-expressed in baculovirus with biotin ligase to generate single site biotinylated Btk (Avidity, LLC). Biotinylated target was captured on Biacore streptavidin sensor chips (Series S Sensor Chip SA) at densities of ˜10000 resonance units (1 ru˜1 pg protein/mm2). […] Compounds were injected for 100 seconds association time and dissociation was followed for 20 min.

Broadly, the clearance is the volume of plasma or blood freed of the substance per unit of time. Read a low clearance as inefficient removal. As usually defined, the bioavailability is dose-corrected exposure relative to a reference, in per cent. Read a high bioavailability as much systemic uptake. As usually defined, the IC50 is the concentration at which inhibition is half-maximal. One may read the Kd as a measure of binding affinity in units of concentration. Read a low Kd as a tighter complex. In the case of `Cn1nc(Nc2cc(-c3cccc(-n4ccc5cc(C(C)(C)C#N)cc(F)c5c4=O)c3CO)nn(C)c2=O)cc1CN1CCC1` [Compound 2, 2-(2-{3-[5-(5-Azetidin-1-ylmethyl-1-methyl-1H-pyrazol-3-ylamino)-1-methyl-6-oxo-1,6-dihydro-pyridazin-3-yl]-2-hydroxymethyl-phenyl}-8-fluoro-1-oxo-1,2-dihydro-isoquinolin-6-yl)-2-methyl-propionitrile], the CL result in “Pharmacokinetics in dog” (Table 8) and in “Pharmacokinetics in rat” (Table 8) was “high” each time. The “Oral Bioavailability” value in “Pharmacokinetics in dog” (Table 8) and in “Pharmacokinetics in rat” (Table 8) was “low” each time. Moreover, the clearance in the series “Pharmacokinetics in dog” (Table 8) stood at 35 mL/min/kg; in the series “Pharmacokinetics in rat” (Table 8) it was 84.9 mL/min/kg. In addition, the values for the bioavailability in the series “Pharmacokinetics in dog” (Table 8) and in “Pharmacokinetics in rat” (Table 8) were 4% and < 2%, respectively. For the same compound, the figures for the “% reduction in airway resistance (R)” value in series [1] (setting [4]), in series [1] (setting [5]) and in series [1] (setting [6]) were 53%, 64* % and 105* %, respectively. At Bruton's Tyrosine Kinase, the “Btk inhibitor potency (FRET)” value is “very potent”. The IC50 on Bruton's Tyrosine Kinase is 1.1 nM; in series [2] (read-out: IC50 IgG production), 9.26 nM; in series [2] (read-out: IC50 IgM production) it was 3.28 nM; in series [3] (read-out: IC50 1L-13 release) it was 91.9 nM; in series [3] (read-out: IC50 GM-CSF release) it was 26 nM; in series [3] (setting [7]), 9.6 nM. Besides, the results for the IC50 in series [3] (read-out: IC50 IL-5 release) and in series [3] (read-out: IC50 PGD2 release) were 13.2 nM and 3.09 nM, respectively. On Btk kinase, this compound had a Kd of 1.48 nM. In addition, the off rate result at Btk kinase was “very slow”. Further, the kon on Btk kinase came to 453000 M⁻¹ s⁻¹.

For the compound `COCCNCc1ccc(Nc2cc(-c3cccc(N4CCc5cc(C(C)(C)C)ccc5C4=O)c3CO)cn(C)c2=O)nc1` [Compound 3, 6-tert-Butyl-2-[2-hydroxymethyl-3-(5-{5-[(2-methoxy-ethylamino)-methyl]-pyridin-2-ylamino}-1-methyl-6-oxo-1,6-dihydro-pyridin-3-yl)-phenyl]-3,4-dihydro-2H-isoquinolin-1-one], the CL entry in “Pharmacokinetics in dog” (Table 9) and in the series “Pharmacokinetics in rat” (Table 9) was “high” in each case. In addition, the “Oral Bioavailability” value in “Pharmacokinetics in dog” (Table 9) and in the series “Pharmacokinetics in rat” (Table 9) was “low” throughout. Besides, the clearance in “Pharmacokinetics in dog” (Table 9) came to 31.4 mL/min/kg; in the series “Pharmacokinetics in rat” (Table 9), 111 mL/min/kg. Further, the bioavailability was 8% in “Pharmacokinetics in dog” (Table 9) and 7% in the series “Pharmacokinetics in rat” (Table 9). Besides, the “% reduction in airway resistance (R)” value in series [1] (setting [4]) is 77* %; in series [1] (setting [5]), 83* %; in series [1] (setting [6]), 93* %. In addition, the “Btk inhibitor potency (FRET)” value on Bruton's Tyrosine Kinase is listed as “very potent”. In addition, the half-maximal inhibitory concentration (IC50) at Bruton's Tyrosine Kinase was found to be 0.2 nM; in series [2] (read-out: IC50 IgG production) it was 3.17 nM; in series [2] (read-out: IC50 IgM production) it was 4.76 nM; in series [3] (read-out: IC50 1L-13 release), 97.4 nM; in series [3] (read-out: IC50 GM-CSF release) it was 28.6 nM; in series [3] (setting [7]), 21.7 nM. Also, the IC50 in series [3] (read-out: IC50 IL-5 release) came to 86.7 nM; in series [3] (read-out: IC50 PGD2 release) it was 5.31 nM. Moreover, on Btk kinase, the affinity, expressed as Kd, was 0.119 nM. Further, the off rate result on Btk kinase is on record as “very slow”. Moreover, the kon on Btk kinase turned out to be 1.07e+06 M⁻¹ s⁻¹.
